The target of one assay is T1, SETD2(1434-1711) (Homo sapiens, UniProt Q9BYW2).
T1 construct: SETD2 (1434-1711) Assay; catalogue N/A
T1 sequence (Q9BYW2 1434-1711): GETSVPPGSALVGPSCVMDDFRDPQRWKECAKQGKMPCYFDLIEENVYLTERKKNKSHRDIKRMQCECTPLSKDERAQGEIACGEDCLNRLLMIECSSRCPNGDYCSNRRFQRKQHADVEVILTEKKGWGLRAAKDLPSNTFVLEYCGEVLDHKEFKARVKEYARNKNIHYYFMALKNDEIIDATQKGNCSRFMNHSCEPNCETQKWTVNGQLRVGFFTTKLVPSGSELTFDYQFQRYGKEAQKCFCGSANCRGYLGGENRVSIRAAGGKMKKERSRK
Briefly: SETD2 (1434-1711) assay. The class given is biochemical. The following applies: read-out: SETD2 (1434-1711).

A further assay concerns H3K36me3 in A549 cells. The assay is described as follows: In-Cell Western (ICW) assay of SETD2 inhibitors (A549 assay). The following applies: A549 cells, read-out: SETD2 A549. The class given is cell-based, human. An outline of the steps:
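A549 cells seeded at 4,000/well onto compound and incubated 3 days at 37° C. Methanol-fixed cells stained overnight at 4° C with anti-H3K36me3 (1:1000), then IRDye 800CW secondary with DRAQ5 DNA counterstain. Plates read by Licor imaging at 700 and 800 channels.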

Read-outs that look alike come from different tables or passages of the source.

As to `Cc1ccc(F)c2cc(C(=O)N[C@@H]3CCC[C@@H](N4CCC(N(C)C(=O)CO)C4)C3)[nH]c12` (some centres unmarked) [compound 935], the IC50 on SETD2(1434-1711) is 1900 nM; with H3K36me3 in A549 cells (Homo sapiens) it was greater than 2000 nM.

With `Cc1ccc(F)c2cc(C(=O)Nc3cccc(N4CCC5(CCCN5C)CC4)c3)[nH]c12` [compound 212], the values for the IC50 at SETD2(1434-1711) and with H3K36me3 in A549 cells were 20 nM and 400 nM, respectively.

Turning to `Cc1ccc(F)c2cc(C(=O)Nc3cc(F)cc(N4C[C@@H]5CCN(C)[C@@H]5C4)c3)[nH]c12` [compound 105], the IC50 was 8 nM on SETD2(1434-1711) and 200 nM with H3K36me3 in A549 cells.

For `Cc1ccc(F)c2cc(C(=O)Nc3cccc(N4CCN(C(=O)OC(C)(C)C)CC4)c3)[nH]c12` [compound 260], the IC50 at SETD2(1434-1711) came out at 200 nM; with H3K36me3 in A549 cells (Homo sapiens), 700 nM.

For `Cc1ccc(F)c2cc(C(=O)Nc3cccc(N4CCC(N(C)CCF)C4)c3)[nH]c12` (centres unmarked) [compound 130], the IC50 at SETD2(1434-1711) came out at 40 nM; in the assay with H3K36me3 in A549 cells (Homo sapiens), 300 nM.

Take `Cc1ccc(C(=O)N2CCNCC2)cc1C(NC(=O)c1cc2cccc(C)c2[nH]1)C1CC1` (centres unmarked) [compound 583]: the IC50 on SETD2(1434-1711) was 32400 nM; in the assay on H3K36me3 in A549 cells (Homo sapiens), greater than 25000 nM.

In the case of `Cc1ccc(F)c2cc(C(=O)Nc3cccc(-c4ncco4)c3)[nH]c12` [compound 261], the IC50 at SETD2(1434-1711) turned out to be 80 nM; in the assay on H3K36me3 in A549 cells (Homo sapiens), 700 nM.

As to `Cc1ccc(F)c2cc(C(=O)Nc3cccc(N4CCC5(CC4)COC5)c3)[nH]c12` [compound 57], the IC50 at SETD2(1434-1711) is 30 nM; with H3K36me3 in A549 cells it was 100 nM.

As to `COc1ccc(C)c2[nH]c(C(=O)NC(CCC(=O)N3CCOCC3)c3ncccc3C)cc12` (centres unmarked) [compound 514], the IC50 is 24900 nM at SETD2(1434-1711) and 18300 nM with H3K36me3 in A549 cells.

For `Cc1ccc(F)c2cc(C(=O)Nc3cccc(N4CC[C@@H](N(C)C)[C@@H](F)C4)c3)[nH]c12` [compound 301], the IC50 on SETD2(1434-1711) came to 100 nM; in the assay on H3K36me3 in A549 cells (Homo sapiens), 1200 nM.

Take `CC(=O)N(C)CCCN1CCCC(NC(=O)c2cc3c(F)ccc(C)c3[nH]2)C1` (centres unmarked) [compound 389]: the IC50 on SETD2(1434-1711) was greater than 10000 nM; in the assay with H3K36me3 in A549 cells, greater than 2000 nM.

`Cc1ccc(F)c2cc(C(=O)Nc3cc(F)cc(N4CCC(N5CCn6ccnc6C5)C4)c3)[nH]c12` (centres unmarked) [compound 29]: the figures for the IC50 on SETD2(1434-1711) and with H3K36me3 in A549 cells were 20 nM and 70 nM, respectively.

For the molecule `Cc1ccc(F)c2cc(C(=O)Nc3cccc(N4CCC(N5CCOCC5)C4)c3)[nH]c12` (centres unmarked) [compound 74], the IC50 at SETD2(1434-1711) was found to be 30 nM; in the assay with H3K36me3 in A549 cells it was 200 nM.

Consider `Cc1cccc2cc(C(=O)NC(C)c3ccccc3Cl)[nH]c12` (centres unmarked) [compound 1156], for which the IC50 at SETD2(1434-1711) worked out at 2100 nM; in the assay on H3K36me3 in A549 cells, 19700 nM.

Consider `Cc1cc(C(=O)NC2CCN(C)CC2)cnc1C(NC(=O)c1cc2cccc(C)c2[nH]1)C1CC1` (centres unmarked) [compound 470], for which the IC50 at SETD2(1434-1711) was 600 nM; in the assay with H3K36me3 in A549 cells (Homo sapiens) it was 8000 nM.

For the molecule `CC(=O)N1CCN([C@@H]2CCC[C@@H](NC(=O)c3cc4c(F)ccc(C)c4[nH]3)C2)CC1C` (some centres unmarked) [compound 907], the IC50 was 900 nM on SETD2(1434-1711) and 1700 nM with H3K36me3 in A549 cells (Homo sapiens).

Regarding `Cc1ccc(F)c2cc(C(=O)Nc3cccc(-c4cccc(CN(C)C)c4)c3)[nH]c12` [compound 266], the results for the IC50 on SETD2(1434-1711) and in the assay with H3K36me3 in A549 cells (Homo sapiens) were 60 nM and 700 nM, respectively.

On to `CC(=O)N1CCN([C@@H]2CCC[C@@H](NC(=O)c3cc4c(F)ccc(C)c4[nH]3)C2)CC12CC2` [compound 1100], for which the IC50 at SETD2(1434-1711) is 900 nM; with H3K36me3 in A549 cells (Homo sapiens), greater than 2000 nM.

Regarding `Cc1ccc(F)c2cc(C(=O)Nc3cccc(N4CCC(O)CC4)c3)[nH]c12` [compound 126], the IC50 on SETD2(1434-1711) worked out at 50 nM; with H3K36me3 in A549 cells (Homo sapiens) it was 300 nM.

As for `Cc1ccc(F)c2cc(C(=O)Nc3cccc(N4CCN(C)CC4C)c3)[nH]c12` (centres unmarked) [compound 318], the IC50 on SETD2(1434-1711) is 200 nM; with H3K36me3 in A549 cells (Homo sapiens), 1400 nM.

In the case of `Cc1cccnc1C(NC(=O)c1cc2cccc(C)c2[nH]1)C1CCCC1` (centres unmarked) [compound 563], the IC50 at SETD2(1434-1711) was 10100 nM; with H3K36me3 in A549 cells (Homo sapiens) it was greater than 25000 nM.

In the case of `Cc1ccc(F)c2cc(C(=O)Nc3cccc(N4CCC(N5CCC(F)(F)CC5)C4)c3)[nH]c12` (centres unmarked) [compound 153], the IC50 came out at 50 nM at SETD2(1434-1711) and 300 nM with H3K36me3 in A549 cells (Homo sapiens).

These data come from patent US12116358B2, “Substituted indoles and methods of use thereof” (EPIZYME, INC., priority 2018, dated 2024).
